For 16 compounds, TGI and GI50 results are on record in PubChem BioAssay (NCI).

Test systems include K-562 leukemia; SK-MEL-5 melanoma; NCI-H460 lung; SR leukemia; SNB-75 CNS; EKVX NSCLC; RXF 393 renal; MCF7 breast; NCI/ADR-RES ovarian; T-47D breast.
Common to all, as to experiment: NCI-60 cell line screen, 48 h

Structures are written as SMILES.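 Five compound concentrations were applied to cells in 96-well plates for 48 hours; endpoints were derived by simple linear interpolation of the resulting dose-response curve. The concentration for 50% growth inhibition is given as GI50. TGI: concentration producing complete growth inhibition.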

On to `CN(CCN(C)C(=O)CCOS(C)(=O)=O)C(=O)CCOS(C)(=O)=O`, for which the TGI in the assay on K-562 leukemia, with SK-MEL-5 melanoma, with NCI-H460 lung, in the assay on SR leukemia, in the assay with SNB-75 CNS and in the assay on EKVX NSCLC was over 100 µM throughout.

On to `CCOC(=O)[C@H]1Nc2ccc(Cl)cc2[C@H]2c3ccccc3O[C@H]21`, for which the TGI in the assay with K-562 leukemia, in the assay with SK-MEL-5 melanoma, in the assay on NCI-H460 lung, in the assay on RXF 393 renal, with SR leukemia and in the assay with SNB-75 CNS was over 100 µM each time. In the assay with EKVX NSCLC, this compound registered a TGI of over 100 µM.

With `NC1=C(Cl)C(=O)c2ccccc2C1=O`, the TGI turned out to be 5.25 µM in the assay with MCF7 breast; 39 µM in the assay on K-562 leukemia; 2.09 µM in the assay on SK-MEL-5 melanoma; 11 µM with NCI-H460 lung; 18.8 µM in the assay with RXF 393 renal; 32.9 µM in the assay on SR leukemia. For the same compound, the TGI with SNB-75 CNS is 27.3 µM; in the assay with EKVX NSCLC, 28.4 µM.

Turning to `O=CN1CCN(C=S)CC1`, the TGI in the assay with K-562 leukemia, in the assay on SK-MEL-5 melanoma, in the assay with NCI-H460 lung, in the assay with RXF 393 renal, with SR leukemia and in the assay on SNB-75 CNS was over 100 µM each time. Also, the TGI in the assay on EKVX NSCLC was over 100 µM.

With `Clc1cc(Cl)cc(Nc2nc3ccccc3nc2-c2cccs2)c1`, the TGI in the assay with NCI-H460 lung is 41.6 µM; in the assay with RXF 393 renal, 39.9 µM; with SR leukemia, over 100 µM; in the assay with SNB-75 CNS, over 100 µM; in the assay on EKVX NSCLC, over 100 µM.

`CO/N=C(/COc1c(-c2ccccc2)oc2ccccc2c1=O)c1ccc(F)cc1`: the GI50 in the assay with K-562 leukemia was over 100 µM; in the assay on SK-MEL-5 melanoma, over 100 µM; in the assay with NCI/ADR-RES ovarian, 86.4 µM; in the assay with RXF 393 renal, 76.6 µM; in the assay with SR leukemia, 22 µM; in the assay with SNB-75 CNS, 28 µM. For the same compound, the GI50 in the assay with T-47D breast and with EKVX NSCLC was over 100 µM throughout. Further, the TGI was over 100 µM in the assay on K-562 leukemia; over 100 µM in the assay with SK-MEL-5 melanoma; over 100 µM with NCI/ADR-RES ovarian; over 100 µM with RXF 393 renal; over 100 µM with SR leukemia; 81.1 µM in the assay on SNB-75 CNS. The TGI in the assay on T-47D breast and with EKVX NSCLC was over 100 µM in each case.

In the case of `NC(=O)c1c2c(cc3c(=O)c4ccccc4[nH]c13)CCCC2`, the TGI in the assay on K-562 leukemia is over 97.3 µM; in the assay on SK-MEL-5 melanoma, over 100 µM; with NCI-H460 lung, over 100 µM; in the assay on RXF 393 renal, over 100 µM; in the assay with SR leukemia, over 100 µM; with SNB-75 CNS it was over 75 µM. The TGI with EKVX NSCLC is over 100 µM.

`O=C(O)c1ccc(C2C3C=CC(C3)C2[N+](=O)[O-])cc1` (centres undefined): the TGI in the assay with K-562 leukemia, with SK-MEL-5 melanoma, in the assay on NCI-H460 lung, in the assay with RXF 393 renal, with SNB-75 CNS and in the assay on EKVX NSCLC was over 100 µM throughout.

Consider `Cc1ccc2[nH]c(C(=O)NN3C(=O)C(C)SC34CCCCC4C)c(-c3ccccc3)c2c1` (centres undefined), for which the GI50 is 23.1 µM with MCF7 breast; 18.5 µM in the assay on K-562 leukemia; 16 µM with SK-MEL-5 melanoma; 22 µM in the assay with NCI-H460 lung; 0.415 µM in the assay with RXF 393 renal; 21.2 µM in the assay on SNB-75 CNS. The GI50 was 24.6 µM with T-47D breast and 24.5 µM in the assay with EKVX NSCLC. Besides, the TGI in the assay on MCF7 breast is over 100 µM; in the assay on K-562 leukemia, 60 µM; in the assay on SK-MEL-5 melanoma, 33.5 µM; in the assay on NCI-H460 lung, 58.5 µM; with RXF 393 renal, 21.1 µM; with SNB-75 CNS, 41.7 µM. Moreover, the TGI in the assay on T-47D breast worked out at 78.9 µM; with EKVX NSCLC, 61.9 µM.

Turning to `C=CCN(CC=C)CC(C(C)=O)C(c1ccccc1)c1c(O)c2ccccc2oc1=O` (centres undefined), the TGI with K-562 leukemia, in the assay on SK-MEL-5 melanoma, with RXF 393 renal, in the assay on SR leukemia, with SNB-75 CNS and in the assay on EKVX NSCLC was over 100 µM each time.

Turning to `CCOC(=O)C(=O)Nc1ccc(Cl)c(C(F)(F)F)c1`, the TGI in the assay on K-562 leukemia, with SK-MEL-5 melanoma, with RXF 393 renal, in the assay with SR leukemia, with SNB-75 CNS and in the assay on EKVX NSCLC was over 100 µM throughout.

For the compound `CC1CC2(CCC1OCc1ccccc1)OCCO2` (centres undefined), the TGI with K-562 leukemia, with SK-MEL-5 melanoma, in the assay on NCI-H460 lung, in the assay on RXF 393 renal and in the assay on EKVX NSCLC was over 100 µM in each case.

On to `C[Si]12OCCCN(CCO1)CCO2`, for which the TGI in the assay with K-562 leukemia, in the assay on SK-MEL-5 melanoma, with NCI-H460 lung, in the assay on RXF 393 renal, in the assay on SR leukemia and in the assay on SNB-75 CNS was over 100 µM throughout. The compound further returned a TGI in the assay on EKVX NSCLC of over 100 µM.

As for `COc1ccc(-n2c3c(c4c(CN(C)C)c(O)c(C)cc42)CCc2ccccc2C3=O)cc1`, the GI50 in the assay with MCF7 breast was over 100 µM; in the assay on K-562 leukemia it was 18.7 µM; in the assay on SK-MEL-5 melanoma, 21.5 µM; in the assay with NCI/ADR-RES ovarian, 17.9 µM; in the assay on NCI-H460 lung, 69.1 µM; in the assay on RXF 393 renal, 16.1 µM. The results for the GI50 in the assay with T-47D breast and with EKVX NSCLC were over 100 µM and 44.5 µM, respectively. Moreover, the TGI in the assay on MCF7 breast is over 100 µM; in the assay on K-562 leukemia, 44.4 µM; with SK-MEL-5 melanoma, 68.8 µM; with NCI/ADR-RES ovarian it was 45.2 µM; in the assay on NCI-H460 lung, over 100 µM; with RXF 393 renal it was 75.6 µM. Also, the TGI in the assay with T-47D breast and with EKVX NSCLC was over 100 µM throughout.

With `COc1ccccc1NC(=O)C1=C(C)NC(C)=C(C(=O)Nc2ccccc2OC)C1c1cccc2c1OCO2`, the TGI was over 100 µM with K-562 leukemia; over 100 µM in the assay with SK-MEL-5 melanoma; over 100 µM with NCI-H460 lung; over 100 µM in the assay on SR leukemia; 50.9 µM with SNB-75 CNS; over 100 µM with EKVX NSCLC.

As for `COc1ccc2c(c1)CCCC1C3=NCCC3(C)CSC21` (centres undefined), the TGI in the assay with K-562 leukemia, in the assay with SK-MEL-5 melanoma, in the assay with NCI-H460 lung, in the assay on RXF 393 renal and in the assay with SNB-75 CNS was over 100 µM in each case.
